The subject of series [1] is H661 cells. Nature of the series: Cell-proliferation assay (CellTiter-Glo 2.0) in H661 cells. In kind it is cell-based, human. As to conditions: FIG. 3B. The method, then: (§1) Inventive bifunctional compounds 1 and 2 were tested in the A427 (anon-small cell lung cancer (NSCLC) cell line) and H661(human lung large cell carcinoma) cells. CellTiter-Glo® 2.0 Cell Viability Assay (Promega™) was used to measure cell growth (proliferation) inhibition and to report the ATP level reduction in cells after treatment with the bifunctional compounds.
In general terms: Cellular ATP, detected with luciferase, serves as a proxy for viable cell number.

Series [2] deals with PRMT5/MEP50 (Homo sapiens, UniProt O14744). The series is described as follows: PRMT5 activity inhibition, AlphaLISA assay. In kind it is biochemical. As to conditions: PRMT5/MEP50 with biotinylated histone tail, FIG. 2A. The method, then: PMRT5 inhibition in HEK 293 WT cells was determined by AlphaLISA® assay (PerkinElmer®) according to manufacturer's instructions. The biotinylated Histone 4 […] histone tail was incubated with PRMT5/MEP50 and inventive bifunctional compounds 1-9, cereblon-based bifunctional compound PRMT5-58, PRMT5 inhibitors EPZ15666 and LLY-283 and RPN13 inhibitor RA190. Then the H4R3symetric Me2 antibody coated beads together with streptavidin beads were incubated together. Assays were processed by EnVision® multimode plate reader (PerkinElmer®).

The test system of series [3] is A427 cells. The series is described as follows: Cell-proliferation assay (CellTiter-Glo 2.0) in A427 cells. In kind it is cell-based. Particulars: FIG. 3A. The method, then:
as §1

Series [4] relates to HL60 cells. Nature of the series: Immunoblot analysis of HL60 cells, blotted targets. As to conditions: FIG. 4A. In kind it is cell-based. The method, then:
FIG. 4A is an image showing an immunoblot analysis of HL60 cells treated with different concentrations (μM) of inventive bifunctional compound 13 for 24 hours and 48 hours.
(§2) Protein lysates were subjected to immunoblot analysis using anti-Rpn13, anti-betaActin, anti-H4R3Me2s, anti-H3, anti-RPN1 and anti-RPN10.
Background: In western blotting, separated proteins are transferred to a membrane and probed.

For series [5], the target named is T1, PRMT5 (Homo sapiens, UniProt O14744).
T1 construct: endogenous in cells; host or cells: HL60
The series is described as follows: Immunoblot analysis of HL60 cells, PRMT5 degradation. In kind it is cell-based. As to conditions: 24 hours, FIG. 4B. On the procedure: (§3) FIG. 4B is an image showing an immunoblot analysis of HL60 cells treated with different concentrations (μM) of inventive bifunctional compound 14 for 24 hours.
as §2

Series [6] concerns the target T2, RPN13 (Homo sapiens, UniProt Q16186).
T2 construct: endogenous in cells; host or cells: HL60
The series is described as follows: Immunoblot analysis of HL60 cells, RPN13 degradation. Particulars: 24 hours, FIG. 4B. In kind it is cell-based. The method, then:
as §3, §2

T1 sequence (O14744 whole entry): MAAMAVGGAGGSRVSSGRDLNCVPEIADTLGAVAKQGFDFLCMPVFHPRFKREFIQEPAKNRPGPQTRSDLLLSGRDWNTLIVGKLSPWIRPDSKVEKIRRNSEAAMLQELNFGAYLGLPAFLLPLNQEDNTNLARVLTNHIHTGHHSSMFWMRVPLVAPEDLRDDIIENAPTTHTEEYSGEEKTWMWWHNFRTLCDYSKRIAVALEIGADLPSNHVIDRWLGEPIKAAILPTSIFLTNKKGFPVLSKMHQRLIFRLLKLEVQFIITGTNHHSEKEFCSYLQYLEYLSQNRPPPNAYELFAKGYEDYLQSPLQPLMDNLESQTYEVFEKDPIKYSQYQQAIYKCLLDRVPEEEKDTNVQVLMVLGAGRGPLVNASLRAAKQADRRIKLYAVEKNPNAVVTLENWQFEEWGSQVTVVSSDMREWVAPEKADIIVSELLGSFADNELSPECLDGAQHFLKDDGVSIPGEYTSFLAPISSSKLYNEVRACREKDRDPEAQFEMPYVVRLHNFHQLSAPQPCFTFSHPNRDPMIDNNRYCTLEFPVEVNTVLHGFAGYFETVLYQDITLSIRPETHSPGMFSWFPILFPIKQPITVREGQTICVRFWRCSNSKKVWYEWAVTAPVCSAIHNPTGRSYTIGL
T1 sequence (Q9BQA1 whole entry partner): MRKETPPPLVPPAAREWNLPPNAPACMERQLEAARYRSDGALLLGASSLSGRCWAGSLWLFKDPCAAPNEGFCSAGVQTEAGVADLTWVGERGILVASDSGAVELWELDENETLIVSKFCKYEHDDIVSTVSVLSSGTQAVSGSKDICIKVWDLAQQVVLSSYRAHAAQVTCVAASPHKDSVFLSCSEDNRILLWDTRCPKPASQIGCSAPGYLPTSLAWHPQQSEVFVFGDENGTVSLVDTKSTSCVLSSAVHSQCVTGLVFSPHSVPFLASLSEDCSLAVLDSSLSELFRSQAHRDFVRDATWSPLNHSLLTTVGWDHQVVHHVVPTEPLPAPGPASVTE
T2 sequence (Q16186 whole entry): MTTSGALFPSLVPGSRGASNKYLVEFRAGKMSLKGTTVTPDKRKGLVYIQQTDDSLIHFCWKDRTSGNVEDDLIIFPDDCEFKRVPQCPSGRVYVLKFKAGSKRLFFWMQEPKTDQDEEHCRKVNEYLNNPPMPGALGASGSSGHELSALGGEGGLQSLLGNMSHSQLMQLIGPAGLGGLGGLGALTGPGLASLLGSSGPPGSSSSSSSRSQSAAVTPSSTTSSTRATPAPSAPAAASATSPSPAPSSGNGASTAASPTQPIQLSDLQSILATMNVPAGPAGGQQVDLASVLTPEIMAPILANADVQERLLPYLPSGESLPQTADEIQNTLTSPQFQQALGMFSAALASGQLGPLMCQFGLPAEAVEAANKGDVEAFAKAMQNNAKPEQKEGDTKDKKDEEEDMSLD
Sequence of PRMT5/MEP50 (O14744 whole entry): as the sequence (O14744 whole entry) above
Sequence of PRMT5/MEP50 (Q9BQA1 whole entry partner): as the sequence (Q9BQA1 whole entry partner) above

In the case of `O=C(CCCC(=O)N[C@@H](Cc1ccccc1)C(=O)N1C/C(=C\c2ccc(Cl)c(Cl)c2)C(=O)/C(=C/c2ccc(Cl)c(Cl)c2)C1)NCCCC(=O)N1CC(Nc2cc(C(=O)NC[C@H](O)CN3CCc4ccccc4C3)ncn2)C1` [Compound 1, N1-((S)-1-(3,5-bis((E)-3,4-dichlorobenzylidene)-4-oxopiperidin-1-yl)-1-oxo-3-phenylpropan-2-yl)-N5-(4-(3-((6-(((S)-3-(3,4-dihydroisoquinolin-2(1H)-yl)-2-hydroxypropyl)carbamoyl)pyrimidin-4-yl)amino)azetidin-1-yl)-4-oxobutyl)glutaramide], the “inhibition of cell growth (proliferation)” value in series [1] and in series [3] was “effectively inhibited growth” throughout. Further, the PRMT5 activity inhibition result in series [2] is given as “successfully inhibited PRMT5 function”.
Consider `O=C(CNc1cc(C(=O)NC[C@H](O)CN2CCc3ccccc3C2)ncn1)NCCCCCCC(=O)N[C@@H](Cc1ccccc1)C(=O)N1C/C(=C\c2ccc([N+](=O)[O-])cc2)C(=O)/C(=C/c2ccc([N+](=O)[O-])cc2)C1` [Compound 13, 6-((2-((7-(((S)-1-(3,5-bis((E)-4-nitrobenzylidene)-4-oxopiperidin-1-yl)-1-oxo-3-phenylpropan-2-yl)amino)-7-oxoheptyl)amino)-2-oxoethyl)amino)-N-((S)-3-(3,4-dihydroisoquinolin-2(1H)-yl)-2-hydroxypropyl)pyrimidine-4-carboxamide], for which the “degradation of blotted targets” value in series [4] (24 and 48 hours) is “minimum degradation”. In series [4], the “concentration tolerated in the cell” value is “up to 10 μM”.
As to `O=C(CCCC(=O)N1CCC(Nc2cc(C(=O)NC[C@@H](O)CN3CCc4ccccc4C3)ncn2)CC1)N[C@@H](Cc1ccccc1)C(=O)N1C/C(=C\c2ccc(Cl)c(Cl)c2)C(=O)/C(=C/c2ccc(Cl)c(Cl)c2)C1` [Compound 14, 6-((1-(5-(((S)-1-(3,5-bis((E)-3,4-dichlorobenzylidene)-4-oxopiperidin-1-yl)-1-oxo-3-phenylpropan-2-yl)amino)-5-oxopentanoyl)piperidin-4-yl)amino)-N-((R)-3-(3,4-dihydroisoquinolin-2(1H)-yl)-2-hydroxypropyl)pyrimidine-4-carboxamide], in series [5], the “concentration resulting in degradation of PRMT5” value worked out at 1 µM and the “concentration with complete loss of PRMT5” value was found to be 3 µM. Moreover, in series [6], the “concentration resulting in degradation of RPN13” value is 1 µM and the “concentration with complete loss of RPN13” value is 3 µM.
